This is an account of results in publication PMC10112521, “High-throughput AR dimerization assay identifies androgen disrupting chemicals and metabolites” (Frontiers in Toxicology, 2023).

The target of experiment [1] is T1, human AR (Homo sapiens, UniProt P10275).
T1 sequence (P10275 1-920) 1: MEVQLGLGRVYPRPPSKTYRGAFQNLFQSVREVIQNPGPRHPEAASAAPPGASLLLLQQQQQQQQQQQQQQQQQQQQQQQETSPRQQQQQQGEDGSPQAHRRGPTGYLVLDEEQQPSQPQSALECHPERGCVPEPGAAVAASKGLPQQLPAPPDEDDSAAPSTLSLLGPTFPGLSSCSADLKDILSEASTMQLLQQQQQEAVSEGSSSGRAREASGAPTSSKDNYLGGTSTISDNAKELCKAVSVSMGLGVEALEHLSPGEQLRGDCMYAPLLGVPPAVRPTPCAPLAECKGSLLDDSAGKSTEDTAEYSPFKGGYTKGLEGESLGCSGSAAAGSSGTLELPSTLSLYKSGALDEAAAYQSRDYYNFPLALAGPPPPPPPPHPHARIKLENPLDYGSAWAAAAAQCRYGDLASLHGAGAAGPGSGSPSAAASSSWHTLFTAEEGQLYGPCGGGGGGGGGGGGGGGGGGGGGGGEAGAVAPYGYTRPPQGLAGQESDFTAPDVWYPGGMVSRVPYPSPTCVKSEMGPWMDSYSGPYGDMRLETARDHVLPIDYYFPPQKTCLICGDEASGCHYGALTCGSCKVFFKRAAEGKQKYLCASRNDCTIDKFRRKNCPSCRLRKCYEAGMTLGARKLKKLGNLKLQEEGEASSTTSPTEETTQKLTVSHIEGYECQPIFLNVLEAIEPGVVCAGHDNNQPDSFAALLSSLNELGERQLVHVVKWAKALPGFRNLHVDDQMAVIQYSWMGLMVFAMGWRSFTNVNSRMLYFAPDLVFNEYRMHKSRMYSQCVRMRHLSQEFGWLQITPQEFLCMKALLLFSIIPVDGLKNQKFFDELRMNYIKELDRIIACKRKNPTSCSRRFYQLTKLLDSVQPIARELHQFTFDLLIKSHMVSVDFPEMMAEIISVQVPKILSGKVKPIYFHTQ
T1 sequence (P10275 1-920) 2: T1 sequence (P10275 1-920) 1
As to the kind of experiment: AR2 assay, agonist mode: ligand-dependent AR homodimerization (NanoBiT luciferase complementation) in stable HepG2-AR2 cells.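 As to hill tp: Log2 fold change of luminescence over DMSO vehicle wells.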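 As to max med: Log2 fold change of luminescence over DMSO vehicle wells.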 It counts as cell-based. As to conditions: for hill_tp / max_med / win_model / hill_gw: sheet agonist_fits; for hill_tp: Hill model top (efficacy); for hill_tp / hill_gw: 0 given where win_model is Constant; for max_med: maximum median response; for win_model: winning concentration-response model (Constant, Hill, Gain-Loss); for hill_gw: Hill model gain slope (Hill coefficient).

Experiment [2] addresses T1, human AR. Briefly: AR2 assay, antagonist mode: disruption of R1881 (10 nM)-induced AR homodimerization in HepG2-AR2 cells. It counts as cell-based. The note with it: spid AR_antagonist, sheet antagonist_fits; for hill_gw (Hill model slope) / hill_tp (Hill model top): 0 where win_model is Constant.
Experiment [3] has as its system full-length human AR and the receptor interacting domain (RID) of SRC1. More on the design: method as in U.S. EPA, 2002b. The note with it: cited from earlier work.
Experiment [4] deals with human AR (LBD and AF2 domains) and the RID of human SRC2. Also on record: method as in U.S. EPA, 2002b. The note with it: activity call, agonist mode, 2 h; invitroDBv3.4 ref U.S. EPA, 2002b; cited from earlier work.
The next experiment has as its system AR. Also on record: method as in Kleinstreuer et al., 2017. The note with it: AR agonist reference class ref Kleinstreuer et al., 2017; cited from earlier work.
In the next experiment the test system is AR2 cells (HepG2-AR2). As to the kind of experiment: Alamar Blue (resazurin) post hoc cell viability / cytotoxicity assay in AR2 cells. As to conditions: spid Viability, sheet antagonist_fits; for hill_tp (Hill model top): 0 where win_model is Constant. (The colour change of resazurin is a common sign of viable cells or microbes.)
Experiment [5] has as its target T1, human AR. Briefly: cell-based. Also on record: species or system AR2 cells (HepG2-AR2); NanoLuc complementation AR homodimerization, antagonist mode, loss of agonist-induced luminescence, AC50 by Hill fit. The note with it: antagonist mode, 10 nM agonist stimulus, 18 h, no CYP expressed.
Experiment [6] has as its target T1, human AR. Briefly: cell-based. More on the design: species or system AR2 cells (HepG2-AR2); NanoLuc complementation AR homodimerization, agonist mode, luminescence gain, AC50 by Hill fit. The note with it: agonist mode, 18 h, no CYP expressed.
Where [7] appears, read: spid=Bgal, read-out: hill_ga (converted).
Setting [8] is: spid=No_RNA, read-out: hill_ga (converted).

Where two headings read alike, the source gives them in different places.

Protocol for AR2 cells (HepG2-AR2): For antagonist mode and cytotoxicity data, well-level normalized response (resp) was calculated as: resp=100 * RLU−bval/pval−bval where pval is the median RLU value of the MEC positive control wells (minimum four wells).

Take `C[C@]12CC[C@@H]3c4ccc(O)cc4C[C@@H](CCCCCCCCC[S+]([O-])CCCC(F)(F)C(F)(F)F)[C@H]3[C@@H]1CC[C@@H]2O` (some centres unmarked) [Fulvestrant]: the AR2 agonist at human AR [1] (activity call, agonist mode, 18 h) stood at 0. Further, at human AR [1], the hill_tp is reported as 0, the max_med is reported as 0.04086 and the win_model entry is reported as “Constant”. Besides, on human AR [2], the “max_med (maximum median response)” value worked out at 30.2853, the “win_model (winning concentration-response model)” value is on record as “Hill”, the “hill_gw (Hill model slope)” value came to 0.7802 and the “hill_tp (Hill model top)” value is 36.6036. In addition, the “OT 8 hr” value in experiment [3] (activity call, 8 h, single protocol detects agonists and antagonists, invitroDBv3.4 ref U.S. EPA, 2002b) is given as 0. Further, the “OT 16 hr” value in experiment [3] (activity call, 16 h, single protocol detects agonists and antagonists, invitroDBv3.4 ref U.S. EPA, 2002b) is on record as 0. Further, the UPitt agonist in experiment [4] is listed as 0. For the same compound, the Agonist reference result with AR is recorded as “Inactive”. In addition, in the experiment on AR2 cells (HepG2-AR2), the “max_med (maximum median response)” value amounted to 0.2489 and the “hill_tp (Hill model top)” value was 0.

In the case of `C[C@]12CC[C@@H]3c4ccc(O)cc4CC[C@H]3[C@@H]1CC[C@H]2O` [17alpha-Estradiol], in experiment [3], the “OT 8 hr” value was 1 and the “OT 16 hr” value was 1. Moreover, the UPitt agonist in experiment [4] was 1. Also, the Agonist reference result with AR is given as “Inactive”. Further, in the experiment on AR2 cells (HepG2-AR2), the “max_med (maximum median response)” value is listed as 9.057 and the “hill_tp (Hill model top)” value came to 0.

For the compound `CCCCOC(=O)c1ccc(O)cc1` [Butylparaben], at human AR [1], the hill_gw amounted to 8, the hill_tp turned out to be 0.09975, the max_med stood at 0.1079 and the win_model result is reported as “Gain-Loss”. On human AR [2], the “max_med (maximum median response)” value is 51.2671, the “win_model (winning concentration-response model)” value was “Hill”, the “hill_gw (Hill model slope)” value is listed as 8 and the “hill_tp (Hill model top)” value was 52.9514. The compound also showed an AC50 at human AR [5] (hill_ga, spid=Bgal) of 73.1 µM. For the same compound, on human AR [5] (hill_ga, spid=No_RNA), the AC50 was 67.8 µM. Besides, on human AR [6] (hill_ga, spid=Bgal), the AC50 is 10.4 µM. In addition, the AC50 on human AR [6] (hill_ga, spid=No_RNA) is 15.3 µM. In addition, in the experiment with AR2 cells (HepG2-AR2), the “max_med (maximum median response)” value is 19.2784 and the “hill_tp (Hill model top)” value worked out at 11.4715.

In the case of `C[C@]12CC[C@@H]3c4ccc(O)cc4CC[C@H]3[C@@H]1CCC2=O` [Estrone], at human AR [1], the hill_gw stood at 0.4978, the hill_tp is on record as 4.258, the max_med worked out at 3.757 and the win_model result is given as “Hill”. For the same compound, on human AR [2], the “max_med (maximum median response)” value came to 84.5958, the “win_model (winning concentration-response model)” value was “Hill”, the “hill_gw (Hill model slope)” value turned out to be 1.278 and the “hill_tp (Hill model top)” value worked out at 83.5344. Moreover, the AC50 on human AR [5] (setting [7]) was 0.556 µM. Further, on human AR [5] (setting [8]), the AC50 was 0.707 µM. Also, on human AR [6] (setting [7]), the AC50 is 4.32 µM. On human AR [6] (setting [8]), the AC50 was 2.63 µM. In the experiment with AR2 cells (HepG2-AR2), the “max_med (maximum median response)” value is 20.7469 and the “hill_tp (Hill model top)” value came to 20.0823.

As to `O=C(c1ccc(O)cc1O)c1ccc(O)cc1O` [2,2',4,4'-Tetrahydroxybenzophenone], on human AR [1], the hill_gw was found to be 3.418, the hill_tp is reported as 2.275, the max_med was found to be 2.26 and the win_model result is reported as “Gain-Loss”. Also, at human AR [2], the “max_med (maximum median response)” value was 92.9832, the “win_model (winning concentration-response model)” value was “Hill”, the “hill_gw (Hill model slope)” value came out at 1.5932 and the “hill_tp (Hill model top)” value was 93.4271. For the same compound, the AC50 on human AR [5] (hill_ga, spid=Bgal) amounted to 9.95 µM. For the same compound, the AC50 on human AR [5] (hill_ga, spid=No_RNA) is 10.6 µM. The compound further came in with an AC50 at human AR [6] (hill_ga, spid=Bgal) of 9.83 µM. At human AR [6] (hill_ga, spid=No_RNA), this compound came in with an AC50 of 9.94 µM. Also, in the experiment on AR2 cells (HepG2-AR2), the “max_med (maximum median response)” value is recorded as 18.7262 and the “hill_tp (Hill model top)” value is 17.7235.
